Measured values published in the RepoRT retention time repository.

Experiment: A: acetonitrile + 0.1% formic acid + 10 mM ammonium formate; B: 5% water + 95% acetonitrile + 0.1% formic acid + 10 mM ammonium formate; gradient (min/%B) 0/10 2/10 22/100 27/100 27.1/10
Conditions: stereoisomer not certain

Compound | LC retention time [min]
COc1cc(C=CC(=O)CC(=O)C=Cc2ccc(O)c(OC)c2)ccc1O [Curcumin] | 0.431
NC(CCSCC(N)C(=O)O)C(=O)O (stereo not drawn) [Cystathionine] | 8.01
Nc1ccn(C2OC(COP(=O)(O)O)C(O)C2O)c(=O)n1 (stereo not drawn) [Cytidine 5'-monophosphate] | 7.4
Nc1ccn(C2OC(COP(=O)(O)OP(=O)(O)OP(=O)(O)O)C(O)C2O)c(=O)n1 (stereo not drawn) [Cytidine 5'-triphosphate] | 10.1
Nc1ccn(C2OC(CO)C(O)C2O)c(=O)n1 (stereo not drawn) [Cytidine] | 4.73
Nc1ccnc(=O)[nH]1 [Cytosine] | 3.35
N[C@H]1C(O)O[C@H](CO)[C@@H](O)[C@@H]1O (stereo partly drawn) [D-(+)-Glucosamine] | 6.72
OCC1OC(OCC2OC(OC3(CO)OC(CO)C(O)C3O)C(O)C(O)C2O)C(O)C(O)C1O [D-(+)-Raffinose] | 7.42
O=C(CO)[C@@H](O)[C@H](O)[C@H](O)COP(=O)(O)O [D-Fructose-6-phosphate] | 7.36
N[C@H]1C(O)O[C@H](COP(=O)(O)O)[C@@H](O)[C@@H]1O (stereo partly drawn) [D-Glucosamine 6-phosphate] | 8.21
O=P(O)(O)OCC1OC(O)C(O)C(O)C1O [D-Glucose 6-phosphate] | 7.76
O=P(O)(O)OCC1OC(O)C(O)C1O [D-Ribose 5-phosphate] | 7.12
O=c1c(-c2ccc(O)cc2)coc2cc(O)ccc12 [Daidzein] | 0.473
CC(=O)c1c(O)cc(C)oc1=O [DehydroacetIc acid] | 0.444
O=c1[nH]cnc2c1ncn2C1CC(O)C(CO)O1 (stereo not drawn) [Deoxyinosine] | 2.64
CCCCOC(=O)CCCCCCCCC(=O)OCCCC [Dibutyl sebacate] | 0.404
O=C(O)Cc1ccccc1Nc1c(Cl)cccc1Cl [Diclofenac acid] | 0.456
OCCNCCO [Diethanolamine] | 5.23
CCOC(=O)CC(=O)OCC [Diethyl malonate] | 0.43
CCOC(=O)CCC(=O)OCC [Diethyl succinate] | 0.425
O=C1CCNC(=O)N1 [Dihydrouracil] | 0.746
O=C(CO)COP(=O)(O)O [Dihydroxyacetone phosphate] | 6.59
COc1ccc(C2Sc3ccccc3N(CCN(C)C)C(=O)C2OC(C)=O)cc1 (stereo not drawn) [Diltiazem] | 1.04
O=c1ccc2cc(OC3OC(CO)C(O)C(O)C3O)c(O)cc2o1 (stereo not drawn) [Esculin] | 2.52
CCOC(=O)c1cncn1C(C)c1ccccc1 (stereo not drawn) [Etomidate] | 0.602
CN(C)Cc1c[nH]c2ccccc12 [Gramine] | 1.61

Other lines, results leading:

LC retention time [min] | Compound
0.944 | CN(C)CCOC(c1ccccc1)c1ccccc1 [Diphenhydramine]
4.22 | NCCc1ccc(O)c(O)c1 [Dopamine]
1.04 | CN(C)CCC=C1c2ccccc2COc2ccccc21 [Doxepin]
4.34 | CCN(Cc1cccc(S(=O)(=O)O)c1)c1ccc(C(=C2C=CC(=[N+](CC)Cc3cccc(S(=O)(=O)O)c3)C=C2)c2ccccc2S(=O)(=O)[O-])cc1 [Erioglaucine]
0.57 | O=C1OC2(c3ccccc31)c1cc(I)c(O)c(I)c1Oc1c2cc(I)c(O)c1I [Erythrosine B]
0.422 | CCOC(=O)c1ccc(N)cc1 [Ethyl 4-aminobenzoate]
0.418 | CCOC(=O)CC(C)=O [Ethyl acetoacetate]
6.91 | O=C(O)CN(CCN(CC(=O)O)CC(=O)O)CC(=O)O [Ethylenediaminetetraacetic acid]
0.453 | CCc1cccc2c3c([nH]c12)C(CC)(CC(=O)O)OCC3 (stereo not drawn) [Etodolac]
2.9 | NC(N)=Nc1nc(CSCCC(N)=NS(N)(=O)=O)cs1 [Famotidine]
0.401 | CC(C)OC(=O)C(C)(C)Oc1ccc(C(=O)c2ccc(Cl)cc2)cc1 [Fenofibrate]
0.564 | COc1cc(/C=C/C(=O)O)ccc1O [Ferulic acid]
7.38 | Cc1cc2nc3c(=O)[nH]c(=O)nc-3n(CC(O)C(O)C(O)COP(=O)(O)OP(=O)(O)OCC3OC(n4cnc5c(N)ncnc54)C(O)C3O)c2cc1C (stereo not drawn) [Flavin Adenine Dinucleotide]
0.425 | O=c1cc(-c2ccccc2)oc2ccccc12 [Flavone]
0.978 | CNCCC(Oc1ccc(C(F)(F)F)cc1)c1ccccc1 (stereo not drawn) [Fluoxetine]
0.561 | CC(C)n1c(C=CC(O)CC(O)CC(=O)O)c(-c2ccc(F)cc2)c2ccccc21 (stereo not drawn) [Fluvastatin]
5.87 | Nc1nc2ncc(CNc3ccc(C(=O)NC(CCC(=O)O)C(=O)O)cc3)nc2c(=O)[nH]1 (stereo not drawn) [Folic acid]
5.94 | Nc1nc2c(c(=O)[nH]1)N(C=O)C(CNc1ccc(C(=O)NC(CCC(=O)O)C(=O)O)cc1)CN2 (stereo not drawn) [Folinic acid]
0.446 | COc1ccc(-c2coc3cc(O)ccc3c2=O)cc1 [Formononetin]

LC retention time [min] | Compound
0.586 | NS(=O)(=O)c1cc(C(=O)O)c(NCc2ccco2)cc1Cl [Furosemide]
4.73 | Nc1nc2c(ncn2COC(CO)CO)c(=O)[nH]1 [Ganciclovir]
0.458 | O=c1c(-c2ccc(O)cc2)coc2cc(O)cc(O)c12 [Genistein]
0.446 | COc1ccc(Cl)cc1C(=O)NCCc1ccc(S(=O)(=O)NC(=O)NC2CCCCC2)cc1 [Glibenclamide]
0.423 | Cc1ccc(S(=O)(=O)NC(=O)NN2CC3CCCC3C2)cc1 (stereo not drawn) [Gliclazide]
0.44 | CCC1=C(C)CN(C(=O)NCCc2ccc(S(=O)(=O)NC(=O)NC3CCC(C)CC3)cc2)C1=O (stereo not drawn) [Glimepiride]
0.463 | Cc1cnc(C(=O)NCCc2ccc(S(=O)(=O)NC(=O)NC3CCCCC3)cc2)cn1 [Glipizide]
0.417 | COc1ccc2c(c1)C(=O)N(CCc1ccc(S(=O)(=O)NC(=O)NC3CCCCC3)cc1)C(=O)C2(C)C [Gliquidone]
0.412 | CCCC(=O)OCC(COC(=O)CCC)OC(=O)CCC [Glycerol Tributyrate]
0.406 | CCCCCC(=O)OCC(COC(=O)CCCCC)OC(=O)CCCCC [Glycerol Trihexanoate]
4.17 | CC(CCC(=O)NCC(=O)O)C1CCC2C3C(O)CC4CC(O)CCC4(C)C3CC(O)C12C (stereo not drawn) [Glycocholic acid]
2.78 | CC(CCC(=O)NCC(=O)O)C1CCC2C3CCC4CC(O)CCC4(C)C3CC(O)C12C (stereo not drawn) [Glycodeoxycholic acid]
5.81 | CC(C)C[C@H](NC(=O)CN)C(=O)O [Glycyl-L-leucine]
5.97 | NCC(=O)N[C@@H](Cc1ccc(O)cc1)C(=O)O [Glycyl-L-tyrosine]
6.02 | CC(C)[C@H](NC(=O)CN)C(=O)O [Glycyl-L-valine]
7.02 | NCC(=O)NCC(=O)O [Glycyl-glycine]
0.402 | Cc1ccc(C(C)C)cc2c(C)ccc1-2 [Guaiazulene]
6.12 | NC(N)=NCC(=O)O [Guanidoacetic acid]
